Experimental data as given in patent publication US4764358A, “Radiolabeled dimethyl branched long chain fatty acid for heart imaging” (The United States of America as represented by the United …, priority 1986, dated 1988).
Read-outs that look alike come from different tables or passages of the source.

How the values were obtained:
[1] = Myocardial uptake/retention and heart:blood ratio, DMIPP compared with monomethyl BMIPP and IPP; conditions: after 60 min
Protocol: (§4) Iodine-125 DMIPP was administered in 6% BSA solution to groups of fasted and fed rats. The animals were killed at time periods varying from 5 min to 8 h and selected tissues and aliquots of blood removed and analyzed in a gamma spectrometer.

[2] = Effect of relative BMIPP/IPP mass ratios on biodistribution properties in rats; type: in vivo; conditions: ratios of up to 6:1
From the text: Nevertheless, in the present experiment, the mass of each fatty acid injected was very similar to eliminate any effects of possible synergistic action on myocardial uptake. […] Within a few minutes following injection, however, differences in retention are clearly evident in fasted animals.

[3] = Triple-label experiment, (123I)DMIPP/(131I)BMIPP/(125I)IPP mixture in fasted rats; type: in vivo, fasted female Fischer rats; conditions: for initial uptake or "extraction" phase (myocardial): DMIPP, BMIPP and IPP compared
From the text: Nevertheless, in the present experiment, the mass of each fatty acid injected was very similar to eliminate any effects of possible synergistic action on myocardial uptake.

[4] = Myocardial retention after intravenous administration to unfasted rats; type: in vivo; conditions: first couple of hours after intravenous administration
From the text: Dimethyl branching was placed at the beta carbon to compare it with the monomethyl branched analogue and because of ease of synthesis. It is believed that dimethyl branching at the alpha carbon would give similar results.

[5] = rat, in vivo
Protocol: as §4

[6] = in vivo; design: species or system female Fischer rats; conditions: rat, iv; for tissue uptake at 5 min / tissue uptake at 0.5 h / tissue uptake at 1 h / tissue uptake at 2 h / tissue uptake at 4 h / tissue uptake at 8 h: distribution of radioactivity
Protocol: (§1) DISTRIBUTION OF RADIOACTIVITY
(% INJECTED DOSE/GRAM OF TISSUE) IN FASTED
(§2) RATS AT VARIOUS TIMES AFTER INTRAVENOUS ADMINISTRATION OF
(§3) 15-(p-[^125 I]IODOPHENYL)-3,3-DIMETHYLPENTADECANOIC ACID (DMIPP)
Mean and range values for five (5, 30 and 60 min) or four (2, 4 and 8 h)
female Fischer rats. Other tissues that were analyzed include spleen,
as §1
(% INJECTED DOSE/ORGAN OF TISSUE) IN FASTED
as §2, §3
Time after injection; Percent injected dose/organ (range)

CC(CCCCCCCCCCCCc1ccc([123I])cc1)CC(=O)O (stereo not drawn) [BMIPP]
loss (washout) from heart [1]: approximately 40% | effect of relative BMIPP/IPP mass ratios on biodistribution properties [2]: insignificant effect | initial uptake or "extraction" phase (myocardial) [3]: very similar for these three agents

CC(C)(CCCCCCCCCCCCc1ccc(I)cc1)CC(=O)O [DMIPP, 15-(p-iodophenyl)-3,3-dimethylpentadecanoic acid]
myocardial retention [4]: essentially irreversible myocardial retention | heart-to-blood ratio [5]: 10/1 | heart:blood ratios, in words [5]: much higher heart:blood ratios | loss (washout) from heart [5]: approximately 24% | myocardial retention, effect of dimethyl branching into the IPP molecule [5]: substantial increase in the myocardial retention | myocardial uptake [5]: high myocardial uptake | radioiodine in the blood, effect of dimethyl branching into the IPP molecule [5]: dramatic decrease of radioiodine in the blood | retention in the heart [5]: prolonged retention | t1/2 (heart retention) [5]: 12 h | time it remained measurable (in the heart) [5]: up to 12 hours | mean heart:blood ratios ([5]; 15 min): greater than 10:1 | initial uptake or "extraction" phase (myocardial) [3]: very similar for these three agents | retention and heart:blood ratios (triple label) ([3]; in comparison to BMIPP and IPP): greater retention and higher heart:blood ratios | Blood, distribution of radioactivity ([6]; 5 min): 8.47 % injected dose/organ | Heart, distribution of radioactivity ([6]; 5 min): 1.95 % injected dose/organ | Kidneys, distribution of radioactivity ([6]; 5 min): 1.45 % injected dose/organ | Liver, distribution of radioactivity ([6]; 5 min): 30.9 % injected dose/organ | Lungs, distribution of radioactivity ([6]; 5 min): 1.63 % injected dose/organ | Mean Heart:Blood ([6]; 5 min): 3:1 | Thyroid, distribution of radioactivity ([6]; 5 min): 0.14 % injected dose/organ | Blood, distribution of radioactivity ([6]; 30 min): 2.30 % injected dose/organ | Heart, distribution of radioactivity ([6]; 30 min): 2.09 % injected dose/organ | Kidneys, distribution of radioactivity ([6]; 30 min): 1.49 % injected dose/organ | Liver, distribution of radioactivity ([6]; 30 min): 28.8 % injected dose/organ | Lungs, distribution of radioactivity ([6]; 30 min): 0.99 % injected dose/organ | Mean Heart:Blood ([6]; 30 min): 12:1 | Thyroid, distribution of radioactivity ([6]; 30 min): 0.15 % injected dose/organ | Blood, distribution of radioactivity ([6]; 60 min): 2.41 % injected dose/organ | Heart, distribution of radioactivity ([6]; 60 min): 2.24 % injected dose/organ | Kidneys, distribution of radioactivity ([6]; 60 min): 1.51 % injected dose/organ | Liver, distribution of radioactivity ([6]; 60 min): 32.4 % injected dose/organ | Lungs, distribution of radioactivity ([6]; 60 min): 0.98 % injected dose/organ | Mean Heart:Blood ([6]; 60 min): 12.5:1 | Thyroid, distribution of radioactivity ([6]; 60 min): 0.11 % injected dose/organ | Blood, distribution of radioactivity ([6]; 120 min): 2.24 % injected dose/organ | Heart, distribution of radioactivity ([6]; 120 min): 1.99 % injected dose/organ | Kidneys, distribution of radioactivity ([6]; 120 min): 1.62 % injected dose/organ | Liver, distribution of radioactivity ([6]; 120 min): 22.8 % injected dose/organ | Lungs, distribution of radioactivity ([6]; 120 min): 0.87 % injected dose/organ | Mean Heart:Blood ([6]; 120 min): 12.6:1 | Thyroid, distribution of radioactivity ([6]; 120 min): 0.17 % injected dose/organ | Blood, distribution of radioactivity ([6]; 240 min): 2.04 % injected dose/organ | Heart, distribution of radioactivity ([6]; 240 min): 1.56 % injected dose/organ | Kidneys, distribution of radioactivity ([6]; 240 min): 1.58 % injected dose/organ | Liver, distribution of radioactivity ([6]; 240 min): 16.7 % injected dose/organ | Lungs, distribution of radioactivity ([6]; 240 min): 1.77 % injected dose/organ | Mean Heart:Blood ([6]; 240 min): 11.2:1 | Thyroid, distribution of radioactivity ([6]; 240 min): 0.22 % injected dose/organ | Blood, distribution of radioactivity ([6]; 480 min): 1.59 % injected dose/organ | Heart, distribution of radioactivity ([6]; 480 min): 1.05 % injected dose/organ | Kidneys, distribution of radioactivity ([6]; 480 min): 1.34 % injected dose/organ | Liver, distribution of radioactivity ([6]; 480 min): 11.4 % injected dose/organ | Lungs, distribution of radioactivity ([6]; 480 min): 0.66 % injected dose/organ | Mean Heart:Blood ([6]; 480 min): 9.3:1 | Thyroid, distribution of radioactivity ([6]; 480 min): 0.28 % injected dose/organ | tissue uptake at 5 min ([6]; Blood): 1.48 %ID/g | tissue uptake at 0.5 h ([6]; Blood): 0.42 %ID/g | tissue uptake at 1 h ([6]; Blood): 0.36 %ID/g | tissue uptake at 2 h ([6]; Blood): 0.35 %ID/g | tissue uptake at 4 h ([6]; Blood): 0.31 %ID/g | tissue uptake at 8 h ([6]; Blood): 0.24 %ID/g | tissue uptake at 5 min ([6]; Heart): 4.67 %ID/g | tissue uptake at 0.5 h ([6]; Heart): 5.06 %ID/g | tissue uptake at 1 h ([6]; Heart): 4.49 %ID/g | tissue uptake at 2 h ([6]; Heart): 4.37 %ID/g | tissue uptake at 4 h ([6]; Heart): 3.53 %ID/g | tissue uptake at 8 h ([6]; Heart): 2.24 %ID/g | tissue uptake at 5 min ([6]; Kidneys): 1.39 %ID/g | tissue uptake at 0.5 h ([6]; Kidneys): 1.47 %ID/g | tissue uptake at 1 h ([6]; Kidneys): 1.46 %ID/g | tissue uptake at 2 h ([6]; Kidneys): 1.41 %ID/g | tissue uptake at 4 h ([6]; Kidneys): 1.39 %ID/g | tissue uptake at 8 h ([6]; Kidneys): 1.19 %ID/g | tissue uptake at 5 min ([6]; Liver): 7.73 %ID/g | tissue uptake at 0.5 h ([6]; Liver): 7.3 %ID/g | tissue uptake at 1 h ([6]; Liver): 6.02 %ID/g | tissue uptake at 2 h ([6]; Liver): 5.32 %ID/g | tissue uptake at 4 h ([6]; Liver): 3.56 %ID/g | tissue uptake at 8 h ([6]; Liver): 2.52 %ID/g | tissue uptake at 5 min ([6]; Lungs): 2.15 %ID/g | tissue uptake at 0.5 h ([6]; Lungs): 1.42 %ID/g | tissue uptake at 1 h ([6]; Lungs): 1.17 %ID/g | tissue uptake at 2 h ([6]; Lungs): 1.12 %ID/g | tissue uptake at 4 h ([6]; Lungs): 0.97 %ID/g | tissue uptake at 8 h ([6]; Lungs): 0.79 %ID/g | tissue uptake at 5 min ([6]; Thyroid): 16.7 %ID/g | tissue uptake at 0.5 h ([6]; Thyroid): 18.5 %ID/g | tissue uptake at 1 h ([6]; Thyroid): 15.8 %ID/g | tissue uptake at 2 h ([6]; Thyroid): 17.9 %ID/g | tissue uptake at 4 h ([6]; Thyroid): 22.9 %ID/g | tissue uptake at 8 h ([6]; Thyroid): 27.8 %ID/g

O=C(O)CCCCCCCCCCCCCCc1ccc([125I])cc1 [IPP, reference compound]
effect of relative BMIPP/IPP mass ratios on biodistribution properties [2]: insignificant effect | initial uptake or "extraction" phase (myocardial) [3]: very similar for these three agents
